The values that follow come from paper doi:10.1101/2025.07.07.663444v1, “Antifungal therapeutic potential of Candida albicans Fun30: screening and validation of novel inhibitors against Candida albicans” (biorxiv, 2025).

In one test the target is T1, CaFun30-c334 (Candida albicans, UniProt A0A1D8PTJ0).
T1 construct: gene FUN30; C-terminal fragment (RecA-like domain 2, motifs IV-VI, no ATPase activity), probably the last 334 residues; pCOLD I vector (N-terminal His tag implied), E. coli BL21(DE3) Rosetta, Ni-NTA purified
T1 sequence (A0A1D8PTJ0 764-1097): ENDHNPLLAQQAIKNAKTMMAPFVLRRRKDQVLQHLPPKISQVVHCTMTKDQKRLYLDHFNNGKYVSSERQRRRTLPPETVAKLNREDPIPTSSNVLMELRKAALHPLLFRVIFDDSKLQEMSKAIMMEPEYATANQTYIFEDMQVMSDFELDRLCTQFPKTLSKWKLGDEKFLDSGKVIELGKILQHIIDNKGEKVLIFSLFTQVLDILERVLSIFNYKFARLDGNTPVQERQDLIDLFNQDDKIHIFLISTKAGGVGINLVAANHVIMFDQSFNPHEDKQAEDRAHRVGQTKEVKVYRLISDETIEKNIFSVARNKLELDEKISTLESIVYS
Briefly: biolayer interferometry (Octet R8, Ni-NTA sensor, protein immobilised). The format is binding. Conditions: PBS pH 7.4, 2 mM beta-mercaptoethanol; 1:1 model.

The next test deals with T2, CaFun30 (Candida albicans, UniProt A0A1D8PTJ0).
T2 construct: gene FUN30; full length, cloned NheI/XhoI in pET21c(+), expressed in E. coli BL21(DE3) Rosetta, Ni-NTA purified
T2 sequence (A0A1D8PTJ0 1-1097): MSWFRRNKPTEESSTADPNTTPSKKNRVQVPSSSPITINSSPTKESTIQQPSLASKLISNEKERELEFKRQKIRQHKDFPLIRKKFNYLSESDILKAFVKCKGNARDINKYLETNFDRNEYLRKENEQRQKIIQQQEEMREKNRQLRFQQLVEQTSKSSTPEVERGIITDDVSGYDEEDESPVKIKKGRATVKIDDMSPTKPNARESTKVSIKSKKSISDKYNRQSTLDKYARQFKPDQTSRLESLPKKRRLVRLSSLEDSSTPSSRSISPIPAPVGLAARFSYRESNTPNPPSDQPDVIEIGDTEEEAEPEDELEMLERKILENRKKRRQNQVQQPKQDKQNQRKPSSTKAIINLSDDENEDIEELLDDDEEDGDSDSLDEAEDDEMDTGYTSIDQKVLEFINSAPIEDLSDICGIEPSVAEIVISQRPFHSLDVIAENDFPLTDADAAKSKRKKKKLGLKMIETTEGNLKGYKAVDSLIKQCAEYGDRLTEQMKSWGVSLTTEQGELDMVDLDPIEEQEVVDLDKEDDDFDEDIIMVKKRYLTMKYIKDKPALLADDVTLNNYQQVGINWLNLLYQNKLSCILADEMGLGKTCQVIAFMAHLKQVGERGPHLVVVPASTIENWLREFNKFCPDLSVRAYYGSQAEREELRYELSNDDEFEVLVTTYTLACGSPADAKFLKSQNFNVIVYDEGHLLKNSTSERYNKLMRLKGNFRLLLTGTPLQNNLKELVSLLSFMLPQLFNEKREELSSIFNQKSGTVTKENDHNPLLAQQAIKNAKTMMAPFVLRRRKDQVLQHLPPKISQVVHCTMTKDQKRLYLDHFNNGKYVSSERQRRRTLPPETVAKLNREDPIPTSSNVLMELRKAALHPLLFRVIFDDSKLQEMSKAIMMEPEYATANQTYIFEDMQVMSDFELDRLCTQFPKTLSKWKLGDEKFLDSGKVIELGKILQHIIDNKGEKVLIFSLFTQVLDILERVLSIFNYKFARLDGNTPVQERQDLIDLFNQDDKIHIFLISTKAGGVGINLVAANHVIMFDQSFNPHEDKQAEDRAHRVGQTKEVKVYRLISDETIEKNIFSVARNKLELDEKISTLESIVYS
The description is as above. The format is binding. Conditions: PBS pH 7.4, 2 mM beta-mercaptoethanol; 1:1 model.

Each structure is given as a SMILES string.

As for `CCc1cc2c(=O)c(-c3ccc(F)cc3)c(C)oc2cc1OCc1ccccc1` [F1067-0218], the results for the Kd on CaFun30-c334 and on CaFun30 were 18 µM and 125 µM, respectively.
Turning to `Cc1nnc2sc(SCC(=O)Nc3ccc(Cl)cc3)nn2c1=O` [F1853-0039], the Kd at CaFun30-c334 was 0.87 µM; at CaFun30, 0.6 µM.
Turning to `Cc1ccc(NC(=O)CSc2nc(C(F)(F)F)cc(=O)[nH]2)cc1Cl` [F2716-0594], the Kd on CaFun30-c334 was found to be 25.1 µM; at CaFun30, 680 µM.

In general, Kd refers to the constant that tells how readily two partners part at equilibrium.
